In patent US20080139664A1, “ANTI-GLYCATION AGENTS FOR PREVENTING AGE-, DIABETES-, AND SMOKING-RELATED COMPLICATIONS” (NATIONAL RESEARCH COUNCIL OF CANADA, priority 2001, published 2008):
Values belong to the compound of their own block, whether it stands above or below them.

Experiments:
[1] = system: bovine serum albumin (BSA)
Method: During the glycation reaction between proteins and reducing sugars, a specific fluorescence with excitation and emission wavelength of 370 nm and 440 nm, respectively, is observed. […] The assay was based on the progressive development of the characteristic Maillard fluorescence (370 nm Ex and 440 nm Em) during the progress of the glycation reaction.
The final assay volume was 200 μl and each assay well contained 0.075 mM BSA, and 50 mM D-ribose. Compounds were assayed at 3 different concentration levels (0.003, 0.03, and 0.3 mg/mL) to determine the effect of concentration on inhibition. Samples were incubated for 5 days.
The Maillard fluorescence was directly measured from the reaction solution, except for the anti-glycants that quenched the Maillard fluorescence, which were analyzed by the earlier-described HPLC method.
Solutions were incubated in microtitre plates (96 wells) at 37° C. for 5 days in a closed system.
After one hour incubation at 37° C., fluorescence readings were taken.
The IC50 values of the compounds that quenched the fluorescence of the glycated BSA were analyzed by on-line monitoring of the fluorescence of the glycated BSA separated from the fluorescence quenching assay compound by RP-HPLC. The elution profile was monitored by UV-diode array and by fluorescence (λex=370 nm, λem=440 nm). […] The incubation conditions were the same as above.

lysozyme = experiment: ESI-MS of lysozyme glycoforms after incubation with D-ribose; details: 37° C., 5 days; for Peak area as % of total area of all glycoforms, 14,569: lysozyme + 2D-ribose − 2H2O (14,569 Da); for Peak area as % of total area of all glycoforms, 14,551: lysozyme + 2D-ribose − 3H2O (14,551 Da); for Peak area as % of total area of all glycoforms, 14,533: lysozyme + 2D-ribose − 5H2O (14,533 Da); for Peak area as % of total area of all glycoforms, 14,515: lysozyme + 2D-ribose − 6H2O (14,515 Da); for Peak area as % of total area of all glycoforms, 14,419: lysozyme + D-ribose − 2H2O (14,419 Da); for Peak area as % of total area of all glycoforms, 14,401: lysozyme + D-ribose − 3H2O (14,401 Da); for Peak area as % of total area of all glycoforms, 14,437: lysozyme + D-ribose − H2O (14,437 Da); for Peak area as % of total area of all glycoforms, 14,496: lysozyme + D-ribose − H2O with one carboxymethylated Lys residue (14,496 Da); for Peak area as % of total area of all glycoforms, 14,364: lysozyme with one carboxymethylated Lys residue (14,364 Da); for Peak area as % of total area of all glycoforms, 14,305: unmodified lysozyme (14,305 Da);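 on all read-outs here: lysozyme incubated with D-ribose, with or without anti-glycation agents, then separated by reversed-phase HPLC and analysed by electrospray mass spectrometry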

SMILES: O=[N+]([O-])c1ccc(O)c(Cl)c1 [2-Chloro-4-nitrophenol]
IC50 [1]: 3500 µM

IC50 [1]: 1600 µM
SMILES: O=c1cc(-c2ccc(O)c(O)c2)oc2cccc(O)c12 [5,3′,4′-Trihydroxyflavone]

IC50 [1]: 130 µM
SMILES: O=c1cc(-c2ccc(O)cc2)oc2cc(O)cc(O)c12 [Apigenin]

SMILES: COc1cccc2c1cc([N+](=O)[O-])c1c(C(=O)O)cc3c(c12)OCO3 [Aristolochic acid]
IC50 [1]: > 4000 µM

IC50 [1]: 400 µM
SMILES: Cn1cnc([N+](=O)[O-])c1Sc1ncnc2nc[nH]c12 [Azathioprine]

SMILES: Nc1c(Cl)cc([N+](=O)[O-])cc1Cl [Botran]
IC50 [1]: > 4000 µM

IC50 [1]: 390 µM
SMILES: Oc1c(Br)cc(Br)c2cccnc12 [Broxyquinoline]
Peak area as % of total area of all glycoforms, 14,569 (lysozyme): 5.7%
Peak area as % of total area of all glycoforms, 14,551 (lysozyme): 4.7%
Peak area as % of total area of all glycoforms, 14,533 (lysozyme): 3.2%
Peak area as % of total area of all glycoforms, 14,515 (lysozyme): 1.7%
Peak area as % of total area of all glycoforms, 14,419 (lysozyme): 7.2%
Peak area as % of total area of all glycoforms, 14,401 (lysozyme): 4.9%
Peak area as % of total area of all glycoforms, 14,437 (lysozyme): 21.0%
Peak area as % of total area of all glycoforms, 14,496 (lysozyme): 1.5%
Peak area as % of total area of all glycoforms, 14,364 (lysozyme): 2.5%
Peak area as % of total area of all glycoforms, 14,305 (lysozyme): 42.2%

IC50 [1]: 1300 µM
SMILES: O=C(N[C@H](CO)[C@H](O)c1ccc([N+](=O)[O-])cc1)C(Cl)Cl [Chloramphenicol]

IC50 [1]: 1400 µM
SMILES: Oc1c(Cl)cc(Cl)c2cccnc12 [Chloroxine]

IC50 [1]: 2100 µM
SMILES: O=c1cc(-c2ccccc2)oc2cc(O)cc(O)c12 [Chrysin]

IC50 [1]: 1100 µM
SMILES: COc1cc(/C=C/C(=O)CC(=O)/C=C/c2ccc(O)c(OC)c2)ccc1O [Curcumin]

IC50 [1]: > 4000 µM
SMILES: O=c1c(-c2ccc(O)cc2)coc2cc(O)ccc12 [Daidzein]

IC50 [1]: 460 µM
SMILES: Cc1ncc([N+](=O)[O-])n1C [Dimetridazole]

IC50 [1]: 340 µM
SMILES: Cc1c(C(N)=O)cc([N+](=O)[O-])cc1[N+](=O)[O-] [Dinitolmide]
Peak area as % of total area of all glycoforms, 14,569 (lysozyme): 4.9%
Peak area as % of total area of all glycoforms, 14,551 (lysozyme): 3.6%
Peak area as % of total area of all glycoforms, 14,533 (lysozyme): 2.6%
Peak area as % of total area of all glycoforms, 14,515 (lysozyme): 1.3%
Peak area as % of total area of all glycoforms, 14,419 (lysozyme): 7.4%
Peak area as % of total area of all glycoforms, 14,401 (lysozyme): 0.0%
Peak area as % of total area of all glycoforms, 14,437 (lysozyme): 22.6%
Peak area as % of total area of all glycoforms, 14,496 (lysozyme): 0.0%
Peak area as % of total area of all glycoforms, 14,364 (lysozyme): 3.0%
Peak area as % of total area of all glycoforms, 14,305 (lysozyme): 51.7%

IC50 [1]: 33 µM
SMILES: C[C@H]1c2cccc(O)c2C(=O)C2=C(O)[C@]3(O)C(=O)C(C(N)=O)=C(O)[C@@H](N(C)C)[C@@H]3[C@@H](O)[C@@H]21 [Doxycycline]

IC50 [1]: 3000 µM
SMILES: Cc1cc(O)c2c(c1)C(=O)c1cc(O)cc(O)c1C2=O [Emodin]

IC50 [1]: 450 µM
SMILES: O=C(Cn1ccnc1[N+](=O)[O-])NCCO [Etanidazole]

IC50 [1]: 1300 µM
SMILES: CC(C)C(=O)Nc1ccc([N+](=O)[O-])c(C(F)(F)F)c1 [Flutamide]

IC50 [1]: 250 µM
SMILES: Oc1ccc(O)cc1 [Hydroquinone]

IC50 [1]: > 4000 µM
SMILES: NC(=O)NO [Hydroxyurea]

IC50 [1]: > 4000 µM
SMILES: CC(C(O)c1ccc(O)cc1)N1CCC(Cc2ccccc2)CC1 (stereo not drawn) [Ifenprodil]

SMILES: COc1ccc2c(c1)c(CC(=O)O)c(C)n2C(=O)c1ccc(Cl)cc1 [Indomethacin]
Peak area as % of total area of all glycoforms, 14,569 (lysozyme): 3.5%
Peak area as % of total area of all glycoforms, 14,551 (lysozyme): 3.3%
Peak area as % of total area of all glycoforms, 14,533 (lysozyme): 1.6%
Peak area as % of total area of all glycoforms, 14,515 (lysozyme): 0.0%
Peak area as % of total area of all glycoforms, 14,419 (lysozyme): 7.5%
Peak area as % of total area of all glycoforms, 14,401 (lysozyme): 0.5%
Peak area as % of total area of all glycoforms, 14,437 (lysozyme): 18.6%
Peak area as % of total area of all glycoforms, 14,496 (lysozyme): 0.0%
Peak area as % of total area of all glycoforms, 14,364 (lysozyme): 5.1%
Peak area as % of total area of all glycoforms, 14,305 (lysozyme): 58.0%

IC50 [1]: > 4000 µM
SMILES: O=c1cc(CO)occ1O [Kojic acid]

IC50 [1]: 320 µM
SMILES: CC(C)=CCC1=C(O)C(=O)c2ccccc2C1=O [Lapachol]

IC50 [1]: 660 µM
SMILES: Cc1ncc([N+](=O)[O-])n1CCO [Metronidazole]

IC50 [1]: 46 µM
SMILES: CN(C)c1ccc(O)c2c1C[C@H]1C[C@H]3[C@H](N(C)C)C(O)=C(C(N)=O)C(=O)[C@@]3(O)C(O)=C1C2=O [Minocycline]

SMILES: O=c1c(O)c(-c2cc(O)c(O)c(O)c2)oc2cc(O)cc(O)c12 [Myricetin]
IC50 [1]: 54 µM
maximum percentage of the inhibition [1]: 64%)
Peak area as % of total area of all glycoforms, 14,569 (lysozyme): 0.0%
Peak area as % of total area of all glycoforms, 14,551 (lysozyme): 0.0%
Peak area as % of total area of all glycoforms, 14,533 (lysozyme): 0.0%
Peak area as % of total area of all glycoforms, 14,515 (lysozyme): 0.0%
Peak area as % of total area of all glycoforms, 14,419 (lysozyme): 1.8%
Peak area as % of total area of all glycoforms, 14,401 (lysozyme): 0.0%
Peak area as % of total area of all glycoforms, 14,437 (lysozyme): 17.7%
Peak area as % of total area of all glycoforms, 14,496 (lysozyme): 0.0%
Peak area as % of total area of all glycoforms, 14,364 (lysozyme): 1.6%
Peak area as % of total area of all glycoforms, 14,305 (lysozyme): 78.9%

IC50 [1]: > 4000 µM
SMILES: COC(=O)C1=C(C)NC(C)=C(C(=O)OCCN(C)Cc2ccccc2)C1c1cccc([N+](=O)[O-])c1 (stereo not drawn) [Nicardipine]

IC50 [1]: > 4000 µM
SMILES: COCCOC(=O)C1=C(C)NC(C)=C(C(=O)OC(C)C)C1c1cccc([N+](=O)[O-])c1 (stereo not drawn) [Nimodipine]

IC50 [1]: 44 µM
maximum percentage of the inhibition [1]: 40%)
SMILES: O=C1CN(/N=C/c2ccc([N+](=O)[O-])o2)C(=O)N1 [Nitrofurantoin]

IC50 [1]: 4000 µM
SMILES: O=[N+]([O-])c1cccc(SSc2cccc([N+](=O)[O-])c2)c1 [Nitrophenide]

IC50 [1]: 2100 µM
SMILES: COC(=O)c1ccc(O)c(N)c1 [Orthoform]

IC50 [1]: 1800 µM
SMILES: O=S1(=O)OC(c2ccc(O)cc2)(c2ccc(O)cc2)c2ccccc21 [Phenol red]

IC50 [1]: 730 µM
SMILES: CN1C(C(=O)Nc2ccccn2)=C(O)c2ccccc2S1(=O)=O [Piroxicam]

IC50 [1]: 1100 µM
SMILES: CNC(=C[N+](=O)[O-])NCCSCc1ccc(CN(C)C)o1 [Ranitidine]

IC50 [1]: 120 µM
SMILES: CO[C@H]1/C=C/O[C@@]2(C)Oc3c(C)c(O)c4c(O)c(c(/C=N/N5CCN(C)CC5)c(O)c4c3C2=O)NC(=O)/C(C)=C\C=C\[C@H](C)[C@H](O)[C@@H](C)[C@@H](O)[C@@H](C)[C@H](OC(C)=O)[C@@H]1C [Rifampicin]

IC50 [1]: > 4000 µM
SMILES: CC(NCCc1ccc(O)cc1)C(O)c1ccc(O)cc1 (stereo not drawn) [Ritodrine]

IC50 [1]: 750 µM
SMILES: COc1cc(C2Oc3cc([C@H]4Oc5cc(O)cc(O)c5C(=O)[C@@H]4O)ccc3OC2CO)ccc1O (stereo partly drawn) [Silibinin]

SMILES: O=C(O)c1cc(/N=N/c2ccc(S(=O)(=O)Nc3ccccn3)cc2)ccc1O [Sulfasalazine]
Peak area as % of total area of all glycoforms, 14,569 (lysozyme): 4.7%
Peak area as % of total area of all glycoforms, 14,551 (lysozyme): 4.7%
Peak area as % of total area of all glycoforms, 14,533 (lysozyme): 2.1%
Peak area as % of total area of all glycoforms, 14,515 (lysozyme): 1.3%
Peak area as % of total area of all glycoforms, 14,419 (lysozyme): 8.2%
Peak area as % of total area of all glycoforms, 14,401 (lysozyme): 2.7%
Peak area as % of total area of all glycoforms, 14,437 (lysozyme): 20.6%
Peak area as % of total area of all glycoforms, 14,496 (lysozyme): 1.5%
Peak area as % of total area of all glycoforms, 14,364 (lysozyme): 2.9%
Peak area as % of total area of all glycoforms, 14,305 (lysozyme): 47.2%

SMILES: CNCC(O)c1ccc(O)cc1 (stereo not drawn) [Synephrine]
IC50 [1]: > 4000 µM

IC50 [1]: > 4000 µM
SMILES: CC(C)(C)NCC(O)c1cc(O)cc(O)c1 (stereo not drawn) [Terbutaline]

IC50 [1]: 700 µM
SMILES: CCS(=O)(=O)CCn1c([N+](=O)[O-])cnc1C [Tinidazole]

IC50 [1]: 630 µM
SMILES: CC1=C(/C=C/C(C)=C/C=C/C(C)=C/C=C/C=C(C)/C=C/C=C(C)/C=C/C2=C(C)CCCC2(C)C)C(C)(C)CCC1 [beta-Carotene]
